For 4 molecules, EC50 results are on record in US20240150346A1, “CLASS OF HETEROAROMATIC COMPOUND, PREPARATION METHOD THEREFOR AND USE THEREOF” (INNOVSTONE THERAPEUTICS LIMITED, priority 2021, published 2024).

Molecules are shown by their SMILES. Structures can show the parent of a compound that is named as a salt. Where two headings read alike, the source gives them in different places.

The assay addresses T1, human-derived receptor TLR7 (Homo sapiens, UniProt Q9NYK1).
T1 construct: host or cells: HEK-Blue hTLR7 cells (HEK293-derived reporter line)
T1 sequence (Q9NYK1 27-1049): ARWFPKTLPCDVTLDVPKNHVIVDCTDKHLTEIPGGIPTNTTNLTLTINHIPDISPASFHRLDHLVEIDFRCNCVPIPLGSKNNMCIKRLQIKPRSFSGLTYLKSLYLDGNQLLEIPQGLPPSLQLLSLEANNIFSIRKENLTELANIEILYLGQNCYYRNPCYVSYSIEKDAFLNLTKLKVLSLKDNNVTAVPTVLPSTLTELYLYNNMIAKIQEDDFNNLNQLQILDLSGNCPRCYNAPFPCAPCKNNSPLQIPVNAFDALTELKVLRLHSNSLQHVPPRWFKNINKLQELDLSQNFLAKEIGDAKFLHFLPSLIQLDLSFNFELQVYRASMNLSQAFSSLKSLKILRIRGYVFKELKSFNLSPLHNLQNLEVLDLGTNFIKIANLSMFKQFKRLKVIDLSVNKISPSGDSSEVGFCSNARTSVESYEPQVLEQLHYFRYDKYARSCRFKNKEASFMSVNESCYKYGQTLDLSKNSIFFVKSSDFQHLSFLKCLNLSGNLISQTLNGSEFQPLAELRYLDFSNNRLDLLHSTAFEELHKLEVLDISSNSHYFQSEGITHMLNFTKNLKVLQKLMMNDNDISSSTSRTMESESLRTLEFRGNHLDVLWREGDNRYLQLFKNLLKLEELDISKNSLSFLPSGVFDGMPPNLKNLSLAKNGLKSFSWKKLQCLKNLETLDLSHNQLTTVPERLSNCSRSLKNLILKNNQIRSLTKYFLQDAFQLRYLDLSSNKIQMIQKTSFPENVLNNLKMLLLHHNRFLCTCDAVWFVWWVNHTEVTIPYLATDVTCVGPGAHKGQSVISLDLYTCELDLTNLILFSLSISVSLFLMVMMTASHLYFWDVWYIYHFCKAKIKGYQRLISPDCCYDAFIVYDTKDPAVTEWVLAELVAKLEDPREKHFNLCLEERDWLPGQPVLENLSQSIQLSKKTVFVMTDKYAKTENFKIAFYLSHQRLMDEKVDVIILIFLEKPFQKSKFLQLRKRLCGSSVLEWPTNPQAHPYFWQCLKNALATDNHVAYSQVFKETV
In words: Assay on agonistic activity for human-derived receptor TLR7 (HEK-Blue hTLR7 cells, HEK-Blue Detection Medium). The format is cell-based. Conditions: 16 h incubation, absorbance at 655 nm. On the procedure:
HEK-Blue™ hTLR7 cells (InvivoGen, hkb-htlr7) were cultured in a DMEM complete medium (Gibco, 12100) containing 10% FBS (Invitrogen, 10099141), 1% P/S (Invitrogen, 15140122), 10 μg/mL Blasticidin (InvivoGen, ant-bl-1), 100 μg/mL Zeocin (InvivoGen, ant-zn-1), and 100 μg/mL Normocin (InvivoGen, ant-nr-1). The cells were cultured in an incubator at 37° C. with 5% CO2. When HEK-Blue™ hTLR7 cells reached a growth density of 70%-80%, cell passage was needed.
The agonistic activity for the human-derived receptor TLR7 by HEK-Blue™ hTLR7 cells was assayed by HEK-Blue™ Detection Medium (InvivoGen, hd-det2). First, a bag of HEK-Blue™ Detection Medium powder was dissolved in 50 mL of ultra-pure sterile water for complete dissolution, and then the dissolved medium was filtered into a new 50 mL centrifuge tube through a 0.22 μm filter. Finally, antibiotics were added into the filtered detection medium until the final concentration was 1% for P/S and 100 μg/mL for Normocin. HEK-Blue™ Detection Medium was pre-heated to 37° C. in advance on the day of the assay on the activity for the TLR7 receptor, and the temperature was always maintained at 37° C.
The compound powder was dissolved in 100% DMSO (Sigma, D2650-100ML) to obtain a 10 mM stock solution, and the compound was completely dissolved by shaking with an oscillator. The stock solution of the compound was subjected to a 5-fold dilution to 2 mM with 100% DMSO. This was followed by a 3-fold serial dilution for a total of 8 concentration gradients. Then, each of the concentration gradients was subjected to a 20-fold dilution to 100 μM, 33.3 μM, 11.1 μM, 3.7 μM, 1.23 μM, […], 0.114 μM, and 0.05 μM using HEK-Blue™ Detection Medium. 20 μL of each of the dilutions was added to a 96-well cell culture plate (Corning, 3599).
On the day of the assay on the agonistic activity for the human-detived receptor TLR7, HEK-Blue™ hTLR7 cells has a growth density of 70%-80%, and the cell medium was removed. 1 mL of cell dissociation buffer (Gibco, 13151-014) was added to each 100 mm cell culture dish, and the cells were incubated in an incubator at 37° C. for 5 min. The cells were pipetted using a DMEM cell medium to obtain a single cell suspension, which was then centrifuged at 1000 rpm for 10 min to collect the cell pellet. The cell pellet was resuspended with HEK-Blue™ Detection Medium pre heated to 37° C. The cells were counted and diluted to 220,000 cells/mL. Finally, 180 μL of cell suspension (40,000 cells/well) was added to each well of the 96-well cell culture plate to which the compound had been added, and the cell suspension was mixed with the compound using a pipettor. Final concentrations of the compound were 10 μM, 3.3 μM, 1.1 μM, 0.37 μM, 0.12 μM, 0.04 μM, 0.01 μM, and 0.005 μM. After incubation in an incubator at 37° C. for 16 h, the absorbance was read at 655 nm using an M5e microplate reader (MD, USA).
The EC50 of the compound was calculated using the software GraphPad Prism (GraphPad Software, USA). The background reading of the detection culture was subtracted from the absorbance readings at 655 nm of all wells of the 96-well plate, the ratio of each well to the negative control well (the well without the compound) was calculated, and then the percentage of the ratio of each well to the positive control well (the well treated with 10 μM positive compound), i.e., the percentage of activity, was calculated. Finally, the sigmoidal dose-response (variable slope) curve between the percentage of activity and the concentration of the compound was calculated using the software GraphPad Prism to calculate the EC50 of the compound. […]

With `COc1nc2c(N)nc3ccccc3c2n1Cc1ccc(CN2CCCC2)cc1` [Comparative Example 1, 2-methoxy-1-((4-((pyrrolidin-1-yl)methyl)phenyl)methyl)-1H-imidazo[4,5-c]quinolin-4-amine trifluoroacetate, reference compound], the EC50 (read-out: hTLR7 EC50) was over 10000 nM. For the molecule `CSc1nc2c(N)nc3ccccc3c2n1Cc1ccc(CN2CCCC2)cc1` [Example 40, 2-(methylthio)-1-(4-(pyrrolidin-1-ylmethyl)benzyl)-1H-imidazo[4,5-c]quinoline-4-amine], the EC50 reads like this: (read-out: EC50) under 50 nM; (read-out: hTLR7 EC50) 55 nM. As to `CSc1nc2c(N)nc3ccccc3c2n1Cc1ccc(N2CCN(C)CC2)nc1` [Example 199], the EC50 is under 50 nM (read-out: EC50) and 43.6 nM (read-out: hTLR7 EC50). Take `COc1cc(CN(C)C)ccc1Cn1c(SC)nc2c(N)nc3ccccc3c21` [Example 240]: the half-maximal effective concentration (EC50) by setting is: (read-out: EC50) under 50 nM; (read-out: hTLR7 EC50) 28.4 nM.
